Assay results taken from patent US11186576B2, “Pyrazolo[1,5-A][1,3,5]triazine and pyrazolo[1,5-A]pyrimidine derivatives as CDK inhibitors” (Aurigene Discovery Technologies Limited, priority 2015, dated 2021).

Biological target: CDK7/CycH/MNAT1 (Homo sapiens (Human), UniProt P50613)
Assay: Biochemical assay for CDK7 (TR-FRET kinase assay)
Settings: 60 min pre-incubation, 1 mM ATP; for inhibition at 10 µM: read-out: % inhibition @ 10 μM; for IC50: read-out: IC50
Method in brief: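 CDK7/CycH/MNAT1 (5 nM) was preincubated with compound for 60 min at room temperature, then reacted for 60 min with 100 nM ULight-MBP and 1 mM ATP in 1% DMSO. Irreversibility was probed with 20, 60 and 180 min preincubations.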

Chain of CDK7/CycH/MNAT1 (P50613 whole entry): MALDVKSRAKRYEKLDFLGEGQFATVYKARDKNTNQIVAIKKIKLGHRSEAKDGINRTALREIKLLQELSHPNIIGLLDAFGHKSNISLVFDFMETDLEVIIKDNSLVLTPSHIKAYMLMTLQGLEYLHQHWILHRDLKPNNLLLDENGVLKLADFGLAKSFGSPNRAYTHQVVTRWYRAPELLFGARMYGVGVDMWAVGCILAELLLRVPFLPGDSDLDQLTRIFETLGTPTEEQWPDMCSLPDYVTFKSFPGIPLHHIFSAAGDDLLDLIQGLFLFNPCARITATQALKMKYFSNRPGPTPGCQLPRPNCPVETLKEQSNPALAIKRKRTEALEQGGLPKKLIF
Chain of CDK7/CycH/MNAT1 (P51946 whole entry partner): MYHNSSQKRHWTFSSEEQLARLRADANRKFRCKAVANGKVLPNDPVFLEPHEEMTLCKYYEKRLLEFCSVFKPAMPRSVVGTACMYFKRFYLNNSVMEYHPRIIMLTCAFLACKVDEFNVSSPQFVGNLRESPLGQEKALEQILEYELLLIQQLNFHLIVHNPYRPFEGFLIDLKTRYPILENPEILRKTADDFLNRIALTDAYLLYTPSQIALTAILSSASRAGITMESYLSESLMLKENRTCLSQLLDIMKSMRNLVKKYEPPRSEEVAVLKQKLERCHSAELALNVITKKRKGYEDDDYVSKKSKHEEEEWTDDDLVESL
Chain of CDK7/CycH/MNAT1 (P51948 whole entry partner): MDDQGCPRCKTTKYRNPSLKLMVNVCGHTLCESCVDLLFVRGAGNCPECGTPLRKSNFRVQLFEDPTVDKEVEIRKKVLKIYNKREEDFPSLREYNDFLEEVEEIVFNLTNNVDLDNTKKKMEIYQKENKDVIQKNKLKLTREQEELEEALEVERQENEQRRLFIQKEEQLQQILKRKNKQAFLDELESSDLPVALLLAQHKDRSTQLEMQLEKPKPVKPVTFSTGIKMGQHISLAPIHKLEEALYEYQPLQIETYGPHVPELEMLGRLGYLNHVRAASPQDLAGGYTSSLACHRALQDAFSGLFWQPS

Compound `C=CC(=O)N1CCCCC1C(=O)Nc1ccc(C)c(CNc2nc(NC3CCOCC3)nc3c(C(C)C)cnn23)c1` (centres unmarked) [Compound 34, 1-acryloyl-N-(3-(((8-isopropyl-2-((tetrahydro-2H-pyran-4-yl)amino)pyrazolo[1,5-a][1,3,5]triazin-4-yl)amino)methyl)-4-methylphenyl)piperidine-2-carboxamide] has an inhibition at 10 µM (10 μM compound) of 73% and an IC50 of over 1000 nM.
For `CC(C)c1cnn2c(NCc3cccc(NC(=O)/C=C/CN(C)C)c3F)nc(NC3CCOCC3)nc12` [Compound 60, (E)-4-(dimethylamino)-N-(2-fluoro-3-(((8-isopropyl-2-((tetrahydro-2H-pyran-4-yl)amino)pyrazolo[1,5-a][1,3,5]triazin-4-yl)amino)methyl)phenyl)but-2-enamide], the inhibition at 10 µM (10 μM compound) was 98% and the IC50 was under 300 nM.
`C=CC(=O)N[C@H]1CC[C@@H](C(=O)Nc2cccc(CNc3nc(NC4CCCC(O)C4)nc4c(C(C)C)cnn34)c2)CC1` (single isomer, unassigned) [Compound 11, 4-acrylamido-N-(3-(((2-((3-hydroxycyclohexyl)amino)-8-isopropylpyrazolo[1,5-a][1,3,5]triazin-4-yl)amino)methyl)phenyl)cyclohexane-1-carboxamide] was tested, and the “% inhibition @ 10 μM” value (10 μM compound) was 89% and the IC50 was 300 to 1000 nM.
`C=CC(=O)NC(C)(C)C(=O)Nc1cccc(CNc2nc(NC3CCOCC3)nc3c(C(C)C)cnn23)c1` [Compound 82, N-(1-((3-(((8-isopropyl-2-((tetrahydro-2H-pyran-4-yl)amino)pyrazolo[1,5-a][1,3,5]triazin-4-yl)amino)methyl)phenyl)amino)-2-methyl-1-oxopropan-2-yl)acrylamide] showed an inhibition at 10 µM (10 μM compound) of 93% and an IC50 of 300 to 1000 nM.
Compound `CC(C)c1cnn2c(NCc3cccc(NC(=O)/C=C/CN4CCOCC4)c3)nc(NC3CCOCC3)nc12` [Compound 51, (E)-N-(3-(((8-isopropyl-2-((tetrahydro-2H-pyran-4-yl)amino)pyrazolo[1,5-a][1,3,5]triazin-4-yl)amino)methyl)phenyl)-4-morpholinobut-2-enamide] has an inhibition at 10 µM (10 μM compound) of 91% and an IC50 of 300 to 1000 nM.
Work on `CC(C)c1cnn2c(NCc3cc(NC(=O)C4CCN(C(=O)/C=C/CN(C)C)C4)ccc3F)nc(NC3CCOCC3)nc12` (centres unmarked) [Compound 70, (E)-1-(4-(dimethylamino)but-2-enoyl)-N-(4-fluoro-3-(((8-isopropyl-2-((tetrahydro-2H-pyran-4-yl)amino)pyrazolo[1,5-a][1,3,5]triazin-4-yl)amino)methyl)phenyl)pyrrolidine-3-carboxamide] yielded an inhibition at 10 µM (10 μM compound) of 85% and an IC50 of 300 to 1000 nM.
In the case of `C=CC(=O)N1CCOCC1C(=O)Nc1cncc(CNc2nc(NC3CCOCC3)nc3c(C(C)C)cnn23)c1` (centres unmarked) [Compound 40, 4-acryloyl-N-(5-(((8-isopropyl-2-((tetrahydro-2H-pyran-4-yl)amino)pyrazolo[1,5-a][1,3,5]triazin-4-yl)amino)methyl)pyridin-3-yl)morpholine-3-carboxamide], the inhibition at 10 µM (10 μM compound) is reported as 99% and the IC50 is reported as under 300 nM.
For `C=CC(=O)Nc1cccc(C(=O)Nc2cccc(CNc3nc(NC4CCOCC4)nc4c(C(C)C)cnn34)c2)c1C` [Compound 48A, 3-acrylamido-N-(3-(((8-isopropyl-2-((tetrahydro-2H-pyran-4-yl)amino)pyrazolo[1,5-a][1,3,5]triazin-4-yl)amino)methyl)phenyl)-2-methylbenzamide], the IC50 was under 300 nM.
Work on `C=CC(=O)N(C)CC(=O)Nc1cccc(CNc2nc(NC3CCOCC3)nc3c(C(C)C)cnn23)c1` [Compound 81, N-(2-((3-(((8-isopropyl-2-((tetrahydro-2H-pyran-4-yl)amino)pyrazolo[1,5-a][1,3,5]triazin-4-yl)amino)methyl)phenyl)amino)-2-oxoethyl)-N-methylacrylamide] yielded an inhibition at 10 µM (10 μM compound) of 98% and an IC50 of under 300 nM.
`C=CC(=O)N1CCC1C(=O)Nc1ccc(C)c(CNc2nc(NC3CCOCC3)nc3c(C(C)C)cnn23)c1` (centres unmarked) [Compound 27, 1-acryloyl-N-(3-(((8-isopropyl-2-((tetrahydro-2H-pyran-4-yl)amino)pyrazolo[1,5-a][1,3,5]triazin-4-yl)amino)methyl)-4-methylphenyl)azetidine-2-carboxamide] showed an inhibition at 10 µM (10 μM compound) of 100% and an IC50 of under 300 nM.
For `C=CC(=O)NC(C)C(=O)Nc1cccc(CNc2nc(NC3CCOCC3)nc3c(C(C)C)cnn23)c1` (centres unmarked) [Compound 80, N-(1-((3-(((8-isopropyl-2-((tetrahydro-2H-pyran-4-yl)amino)pyrazolo[1,5-a][1,3,5]triazin-4-yl)amino)methyl)phenyl)amino)-1-oxopropan-2-yl)acrylamide], the inhibition at 10 µM (10 μM compound) was 94% and the IC50 was 300 to 1000 nM.
`CC(C)c1cnn2c(NCC3CCN(C(=O)/C=C/CN4CCCC4)CC3)nc(NC3CCOCC3)nc12` [Compound 138, (E)-1-(4-(((8-isopropyl-2-((tetrahydro-2H-pyran-4-yl)amino)pyrazolo[1,5-a][1,3,5]triazin-4-yl)amino)methyl)piperidin-1-yl)-4-(pyrrolidin-1-yl)but-2-en-1-one] gave an inhibition at 10 µM (10 μM compound) of 64% and an IC50 of over 1000 nM.
`C=CC(=O)N[C@H]1CC[C@@H](C(=O)Nc2cccc(Nc3nc(OC4CCN(C)CC4)nc4c(C(C)C)cnn34)c2)CC1` [Compound 126, (1,4-cis)-4-acrylamido-N-(3-((8-isopropyl-2-((1-methylpiperidin-4-yl)oxy)pyrazolo[1,5-a][1,3,5]triazin-4-yl)amino)phenyl)cyclohexane-1-carboxamide] was tested, and the IC50 was over 1000 nM.
In the case of `C=CC(=O)N1CCCCC1C(=O)Nc1cccc(CNc2nc(N[C@H]3CCCOC3)nc3c(C(C)C)cnn23)c1` (stereo partly drawn) [Compound 16, 1-acryloyl-N-(3-(((8-isopropyl-2-(((S)-tetrahydro-2H-pyran-3-yl)amino)pyrazolo[1,5-a][1,3,5]triazin-4-yl)amino)methyl)phenyl)piperidine-2-carboxamide], the IC50 is reported as under 300 nM.
`C#CC(=O)N1CCC1C(=O)Nc1cccc(CNc2nc(NC3CCOCC3)nc3c(C(C)C)cnn23)c1` (centres unmarked) [Compound 66, N-(3-(((8-isopropyl-2-((tetrahydro-2H-pyran-4-yl)amino)pyrazolo[1,5-a][1,3,5]triazin-4-yl)amino)methyl)phenyl)-1-propioloylazetidine-2-carboxamide] gave an inhibition at 10 µM (10 μM compound) of 98% and an IC50 of under 300 nM.
Compound `COC/C=C/C(=O)N1CCC(C(=O)Nc2cccc(CNc3nc(NC4CCOCC4)nc4c(C(C)C)cnn34)c2)C1` (centres unmarked) [Compound 68, (E)-N-(3-(((8-isopropyl-2-((tetrahydro-2H-pyran-4-yl)amino)pyrazolo[1,5-a][1,3,5]triazin-4-yl)amino)methyl)phenyl)-1-(4-methoxybut-2-enoyl)pyrrolidine-3-carboxamide] has an inhibition at 10 µM (10 μM compound) of 92% and an IC50 of 300 to 1000 nM.
Work on `C=CC(=O)N[C@H]1CC[C@@H](C(=O)Nc2cccc(CNc3nc(N[C@H]4CC[C@H](O)CC4)nc4c(C(C)C)cnn34)c2)CC1` [Compound 9, (1,4-cis)-4-acrylamido-N-(3-(((2-(((1r,4r)-4-hydroxycyclohexyl)amino)-8-isopropylpyrazolo[1,5-a][1,3,5]triazin-4-yl)amino)methyl)phenyl)cyclohexane-1-carboxamide] yielded an inhibition at 10 µM (10 μM compound) of 85% and an IC50 of over 1000 nM.
`CCN1CCN(C/C=C/C(=O)Nc2cccc(CNc3nc(NC4CCOCC4)nc4c(C(C)C)cnn34)c2)CC1` [Compound 52, (E)-4-(4-ethylpiperazin-1-yl)-N-(3-(((8-isopropyl-2-((tetrahydro-2H-pyran-4-yl)amino)pyrazolo[1,5-a][1,3,5]triazin-4-yl)amino)methyl)phenyl)but-2-enamide] gave an inhibition at 10 µM (10 μM compound) of 96%.
